Assay results published in ChEMBL document CHEMBL4622970, “Design, Synthesis, and Evaluation of New Quinazolinone Derivatives that Inhibit Bloom Syndrome Protein (BLM) Helicase, Trigger DNA Damage at the Telomere Region, and Synergize with PARP Inhibitors” (J Med Chem, 2020).
Active and inactive are the calls of the source. The rule behind the calls is not given here.

Key:
[1] = target: T1, RecQ-like DNA helicase BLM (Homo sapiens, UniProt P54132); experiment: Inhibition of BLM in human HCT116 cells assessed as increase in gamma-H2AX-TRF2 foci colocalization mediated telomere dysfunction-induced foci formation measured after 24 hrs by DAPI staining based immunofluorescence assay; type: cell-based; conditions: HCT-116
[2] = target: T1, RecQ-like DNA helicase BLM; experiment: Inhibition of BLM in human HCT116 cells assessed as potentiation of niraparib-induced cytotoxicity by measuring combination index at 1 to 2 uM measured after 48 hrs by MTT assay; type: cell-based; conditions: HCT-116
[3] = target: T1, RecQ-like DNA helicase BLM; experiment: Inhibition of BLM in human HCT116 cells assessed as increase in gamma-H2AX level at 2 uM measured after 24 hrs by Western blot analysis; type: cell-based; conditions: HCT-116
[4] = test system: HCT-116; experiment: Induction of apoptosis in human HCT116 cells assessed as apoptotic cell population at 4 uM measured after 48 hrs by Annexin V-FITC/propidium iodide staining based flow cytometry (reference value: 17.4%); type: functional
[5] = target: T1, RecQ-like DNA helicase BLM; experiment: Binding affinity to wild-type His-tagged BLM (642 to 1296 residues) (unknown origin) expressed in Escherichia coli BL21 (DE3) cells by isothermal calorimetric titration assay
[6] = target: T1, RecQ-like DNA helicase BLM; experiment: Inhibition of BLM in human HCT116 cells assessed as upregulation of CHK2 phosphorylation by Western blot analysis; type: cell-based; conditions: HCT-116
[7] = test system: HCT-116; experiment: Induction of apoptosis in human HCT116 cells assessed as upregulation of cleaved PARP expression up to 4 uM measured after 48 hrs by Western blot analysis; type: functional, cell-based
[8] = test system: HCT-116; experiment: Antiproliferative activity against wild-type human HCT116 cells assessed as inhibition of cell proliferation by real-time cellular analysis; type: functional, cell-based
[9] = target: T1, RecQ-like DNA helicase BLM; experiment: Inhibition of BLM in human HCT116 cells assessed as down regulation of HRR level at 0.5 uM measured after 24 hrs by luciferase reporter gene assay; type: cell-based; conditions: HCT-116
[10] = test system: HCT-116; experiment: Induction of apoptosis in human HCT116 cells measured after 48 hrs by Annexin V-FITC/propidium iodide staining based flow cytometry; type: functional, cell-based
[11] = target: T1, RecQ-like DNA helicase BLM; experiment: Inhibition of BLM in human HCT116 cells assessed as increase in gamma-H2AX-TRF2 foci colocalization mediated telomere dysfunction-induced foci formation at 1 to 4 uM measured after 24 hrs by DAPI staining based immunofluorescence assay relative to total gamma-H2AX foci; type: cell-based; conditions: HCT-116
[12] = target: T1, RecQ-like DNA helicase BLM; experiment: Binding affinity to BLM in human HCT116 cells cotransfected with DSB model and I-SceI plasmid assessed as reduction in recruitment of protein to DSB site in DNA at 2 uM measured after 24 hrs by chromatin immunoprecipitation assay; type: cell-based; conditions: HCT-116
[13] = target: T1, RecQ-like DNA helicase BLM; experiment: Binding affinity to BLM in human HCT116 cells cotransfected with DSB model and I-SceI plasmid assessed as reduction in recruitment of protein to DNA region distant from DSB site at 2 uM measured after 24 hrs by chromatin immunoprecipitation assay; type: cell-based; conditions: HCT-116
[14] = target: T1, RecQ-like DNA helicase BLM; experiment: Inhibition of BLM in human HCT116 cells assessed as induction of telomere end loss at 4 uM by fluorescent in situ hybridization; type: cell-based; conditions: HCT-116
[15] = target: RecQ-like DNA helicase BLM (Homo sapiens, UniProt P54132, I1168A); experiment: Binding affinity to His-tagged BLM I1168A mutant (unknown origin) expressed in Escherichia coli BL21 (DE3) cells by isothermal calorimetric titration assay
[16] = target: T1, RecQ-like DNA helicase BLM; experiment: Inhibition of BLM in human HCT116 cells assessed as potentiation of olaparib-induced cytotoxicity by measuring combination index at 1 to 2 uM measured after 48 hrs by MTT assay; type: cell-based; conditions: HCT-116
[17] = target: T1, RecQ-like DNA helicase BLM; experiment: Inhibition of BLM in human HCT116 cells assessed as potentiation of cisplatin-induced cytotoxicity by measuring combination index at 1 to 2 uM measured after 48 hrs by MTT assay; type: cell-based; conditions: HCT-116
[18] = target: RecQ-like DNA helicase BLM (Homo sapiens, UniProt P54132, H996A); experiment: Binding affinity to His-tagged BLM H996A mutant (unknown origin) expressed in Escherichia coli BL21 (DE3) cells by isothermal calorimetric titration assay
[19] = test system: HCT-116; experiment: Induction of apoptosis in human HCT116 cells assessed as upregulation of cleaved caspase-7 expression up to 4 uM measured after 48 hrs by Western blot analysis; type: functional, cell-based
[20] = target: T1, RecQ-like DNA helicase BLM; experiment: Inhibition of His-tagged BLM (642 to 1296 residues) (unknown origin) expressed in Escherichia coli BL21 (DE3) cells assessed as reduction in DNA unwinding activity using 5'-biotin-labeled forked DNA as substrate preincubated for 1 hr followed by substrate addition and measured after 1 hr by electrophoretic mobility shift assay
[21] = target: T1, RecQ-like DNA helicase BLM; experiment: Inhibition of BLM in human HCT116 cells assessed as upregulation of ATM phosphorylation up to 4 uM by Western blot analysis; type: cell-based; conditions: HCT-116
[22] = target: T1, RecQ-like DNA helicase BLM; experiment: Inhibition of BLM in human HCT116 cells assessed as potentiation of niraparib-induced cytotoxicity at 1 to 2 uM measured after 48 hrs by MTT assay relative to niraparib alone; type: cell-based; conditions: HCT-116
[23] = target: T1, RecQ-like DNA helicase BLM; experiment: Inhibition of BLM in human HCT116 cells assessed as upregulation of CHK1 phosphorylation by Western blot analysis; type: cell-based; conditions: HCT-116
[24] = target: T1, RecQ-like DNA helicase BLM; experiment: Inhibition of BLM in human HCT116 cells assessed as increase in gamma-H2AX-TRF2 foci colocalization mediated telomere dysfunction-induced foci formation at 1 uM measured after 24 hrs in presence of […] inhibitor niraparib by DAPI staining based immunofluorescence assay; type: cell-based; conditions: HCT-116
[25] = target: T1, RecQ-like DNA helicase BLM; experiment: Inhibition of BLM in human HCT116 cells assessed as upregulation of ATR phosphorylation up to 4 uM by Western blot analysis; type: cell-based; conditions: HCT-116
[26] = target: T1, RecQ-like DNA helicase BLM; experiment: Inhibition of BLM in human HCT116 cells assessed as potentiation of BIBR1532-induced cytotoxicity by measuring combination index at 1 to 2 uM measured after 48 hrs by MTT assay; type: cell-based; conditions: HCT-116
[27] = test system: HCT-116; experiment: Induction of apoptosis in human HCT116 cells assessed as upregulation of cleaved caspase-3 expression up to 4 uM measured after 48 hrs by Western blot analysis; type: functional, cell-based
[28] = target: T1, RecQ-like DNA helicase BLM; experiment: Inhibition of BLM in human HCT116 cells assessed as increase in gamma-H2AX foci at 1 to 4 uM measured after 24 hrs by DAPI staining based immunofluorescence assay; type: cell-based; conditions: HCT-116
[29] = test system: HCT-116; experiment: Cytotoxicity against human HCT116 cells by MTT assay; type: functional, cell-based
[30] = target: T1, RecQ-like DNA helicase BLM; experiment: Binding affinity to His-tagged BLM (642 to 1296 residues) (unknown origin) expressed in Escherichia coli BL21 (DE3) cells assessed as inhibition of protein interaction with 5'-biotin-labeled forked DNA measured after 1 hr by ELISA
[31] = test system: HCT-116; experiment: Antiproliferative activity against human HCT116 cells harboring siBLM assessed as inhibition of cell proliferation at 1 to 2 uM by real-time cellular analysis; type: functional, cell-based
[32] = target: T1, RecQ-like DNA helicase BLM; experiment: Inhibition of BLM in human HCT116 cells assessed as potentiation of olaparib-induced cytotoxicity at 1 to 2 uM measured after 48 hrs by MTT assay relative to olaparib alone; type: cell-based; conditions: HCT-116

T1 sequence (P54132 whole entry): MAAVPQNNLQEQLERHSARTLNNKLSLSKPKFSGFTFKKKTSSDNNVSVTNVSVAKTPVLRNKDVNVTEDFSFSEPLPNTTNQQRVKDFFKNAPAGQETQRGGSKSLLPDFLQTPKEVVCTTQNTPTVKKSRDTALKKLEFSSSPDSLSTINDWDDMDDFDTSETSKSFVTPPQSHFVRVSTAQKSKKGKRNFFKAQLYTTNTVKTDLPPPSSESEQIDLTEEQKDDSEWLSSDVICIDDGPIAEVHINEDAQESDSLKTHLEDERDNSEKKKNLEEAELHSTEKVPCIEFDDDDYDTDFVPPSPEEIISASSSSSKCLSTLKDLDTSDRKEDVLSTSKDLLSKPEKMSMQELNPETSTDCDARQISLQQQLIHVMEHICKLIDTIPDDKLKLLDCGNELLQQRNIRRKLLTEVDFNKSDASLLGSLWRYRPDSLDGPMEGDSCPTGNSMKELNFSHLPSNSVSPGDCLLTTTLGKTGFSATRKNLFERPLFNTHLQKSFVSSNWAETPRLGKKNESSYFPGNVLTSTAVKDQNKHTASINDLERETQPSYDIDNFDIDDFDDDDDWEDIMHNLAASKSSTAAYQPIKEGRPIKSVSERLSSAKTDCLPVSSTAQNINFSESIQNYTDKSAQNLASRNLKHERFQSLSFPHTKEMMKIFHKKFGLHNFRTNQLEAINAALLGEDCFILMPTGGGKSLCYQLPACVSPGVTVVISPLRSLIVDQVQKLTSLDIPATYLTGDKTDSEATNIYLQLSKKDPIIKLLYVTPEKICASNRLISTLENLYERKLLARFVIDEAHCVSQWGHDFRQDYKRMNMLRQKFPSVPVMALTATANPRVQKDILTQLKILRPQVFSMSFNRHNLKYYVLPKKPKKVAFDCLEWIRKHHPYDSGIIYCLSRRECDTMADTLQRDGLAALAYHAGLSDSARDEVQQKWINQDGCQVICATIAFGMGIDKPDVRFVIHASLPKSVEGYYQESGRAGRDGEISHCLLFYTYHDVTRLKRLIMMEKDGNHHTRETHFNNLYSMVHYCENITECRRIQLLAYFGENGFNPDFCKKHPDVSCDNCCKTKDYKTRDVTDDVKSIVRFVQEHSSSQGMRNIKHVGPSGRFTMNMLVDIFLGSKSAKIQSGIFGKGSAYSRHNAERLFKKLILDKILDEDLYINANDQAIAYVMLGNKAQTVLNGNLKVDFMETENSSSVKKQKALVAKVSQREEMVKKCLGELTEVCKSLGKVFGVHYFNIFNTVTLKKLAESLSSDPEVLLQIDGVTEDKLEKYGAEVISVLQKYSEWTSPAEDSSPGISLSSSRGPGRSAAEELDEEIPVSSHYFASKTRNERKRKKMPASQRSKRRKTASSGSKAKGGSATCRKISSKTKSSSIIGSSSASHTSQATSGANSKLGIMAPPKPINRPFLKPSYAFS
Chain of RecQ-like DNA helicase BLM (Homo sapiens, UniProt P54132, H996A) (P54132 whole entry H996A): as the sequence (P54132 whole entry) above, with H996A counted along it
Chain of RecQ-like DNA helicase BLM (Homo sapiens, UniProt P54132, I1168A) (P54132 whole entry I1168A): as the sequence (P54132 whole entry) above, with I1168A counted along it

CCN(CC)CCCNc1cc2nc(/C=C/c3ccc(C(C)C)cc3)n(CCCl)c(=O)c2cc1F
inhibition [1]: Dose-dependent effect
CI [2]: 0.4 to 0.8
inhibition [3]: Active
Activity [4]: 76%
Kd [5]: 760 nM
inhibition [6]: Dose-dependent effect
Activity [7]: Active
inhibition [8]: Dose-dependent effect
inhibition [9]: Active
Activity [10]: Dose-dependent effect
inhibition [11]: > 70%
Activity [12]: Active
Activity [13]: Active
inhibition [14]: Active
Kd [15]: 6540 nM
CI [16]: 0.4 to 0.8
CI [17]: 0.6 to 0.8
Kd [18]: 1400 nM
Activity [19]: Active
IC50 [20]: 800 nM
inhibition [21]: Active
fold change (FC) [22]: 2 to 4
inhibition [23]: Dose-dependent effect
inhibition [24]: Active
inhibition [25]: Active
CI [26]: 0.5 to 0.8
Activity [27]: Active
inhibition [28]: Active
Activity [29]: Active
IC50 [30]: 8700 nM
inhibition [31]: inactive
fold change (FC) [32]: 2 to 4
